Tests used:
[1] = system: MDA-MB-453 cell line (FGFR4-Y367C); test: Cancer cell line cell viability assay (Cell Titer-Glo), 120 hr; type: cell-based; settings: Homo sapiens
Method in brief: (§1)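 Following overnight attachment, each line receives compound in triplicate across nine 4-fold dilutions starting at 3 μM, with DMSO backfill for equal solvent. Luminescence after Cell Titer-Glo 2.0 addition gives percent viability versus DMSO control, fitted by 4-parameter logistic for IC50.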

FGFR3 = biological target: T1, FGFR3 (Homo sapiens, UniProt P22607); test: Kinase binding assay (kinase-tagged T7 phage, affinity beads, qPCR), Kd; settings: read-out: FGFR3 (Kd nM)
T1 construct: made in house; host or cells: E. coli (BL21-derived), T7 phage
T1 sequence (P22607 23-806): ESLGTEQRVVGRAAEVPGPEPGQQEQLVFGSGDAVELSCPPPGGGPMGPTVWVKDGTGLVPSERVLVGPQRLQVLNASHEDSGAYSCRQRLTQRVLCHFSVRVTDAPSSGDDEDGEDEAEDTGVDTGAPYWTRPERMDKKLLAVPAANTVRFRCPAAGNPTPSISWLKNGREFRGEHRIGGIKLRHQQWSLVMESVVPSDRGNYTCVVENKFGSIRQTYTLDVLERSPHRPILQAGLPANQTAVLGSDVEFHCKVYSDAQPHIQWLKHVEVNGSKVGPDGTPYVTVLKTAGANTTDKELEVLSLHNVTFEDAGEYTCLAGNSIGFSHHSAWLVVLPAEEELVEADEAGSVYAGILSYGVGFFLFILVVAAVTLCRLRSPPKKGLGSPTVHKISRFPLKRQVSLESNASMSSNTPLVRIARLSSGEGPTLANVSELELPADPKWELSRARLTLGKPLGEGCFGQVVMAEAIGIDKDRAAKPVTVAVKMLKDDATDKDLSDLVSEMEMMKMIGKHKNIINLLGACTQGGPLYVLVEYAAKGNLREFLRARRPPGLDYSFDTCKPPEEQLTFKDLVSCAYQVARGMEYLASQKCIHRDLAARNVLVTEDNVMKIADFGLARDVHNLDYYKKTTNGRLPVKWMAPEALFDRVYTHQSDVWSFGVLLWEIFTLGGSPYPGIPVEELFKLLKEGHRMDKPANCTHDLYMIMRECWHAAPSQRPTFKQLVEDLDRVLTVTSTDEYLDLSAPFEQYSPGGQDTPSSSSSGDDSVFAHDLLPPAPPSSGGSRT
Method in brief: (§2)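 Phage-tagged kinase capture on small-molecule affinity resin, compound competition, qPCR quantitation; Kd from Levenberg-Marquardt Hill fit.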

FGFR4 = biological target: T2, FGFR4 (Homo sapiens, UniProt P22455); test: as above; settings: read-out: FGFR4 (Kd nM)
T2 construct: made in house; host or cells: E. coli (BL21-derived), T7 phage
T2 sequence (P22455 22-802): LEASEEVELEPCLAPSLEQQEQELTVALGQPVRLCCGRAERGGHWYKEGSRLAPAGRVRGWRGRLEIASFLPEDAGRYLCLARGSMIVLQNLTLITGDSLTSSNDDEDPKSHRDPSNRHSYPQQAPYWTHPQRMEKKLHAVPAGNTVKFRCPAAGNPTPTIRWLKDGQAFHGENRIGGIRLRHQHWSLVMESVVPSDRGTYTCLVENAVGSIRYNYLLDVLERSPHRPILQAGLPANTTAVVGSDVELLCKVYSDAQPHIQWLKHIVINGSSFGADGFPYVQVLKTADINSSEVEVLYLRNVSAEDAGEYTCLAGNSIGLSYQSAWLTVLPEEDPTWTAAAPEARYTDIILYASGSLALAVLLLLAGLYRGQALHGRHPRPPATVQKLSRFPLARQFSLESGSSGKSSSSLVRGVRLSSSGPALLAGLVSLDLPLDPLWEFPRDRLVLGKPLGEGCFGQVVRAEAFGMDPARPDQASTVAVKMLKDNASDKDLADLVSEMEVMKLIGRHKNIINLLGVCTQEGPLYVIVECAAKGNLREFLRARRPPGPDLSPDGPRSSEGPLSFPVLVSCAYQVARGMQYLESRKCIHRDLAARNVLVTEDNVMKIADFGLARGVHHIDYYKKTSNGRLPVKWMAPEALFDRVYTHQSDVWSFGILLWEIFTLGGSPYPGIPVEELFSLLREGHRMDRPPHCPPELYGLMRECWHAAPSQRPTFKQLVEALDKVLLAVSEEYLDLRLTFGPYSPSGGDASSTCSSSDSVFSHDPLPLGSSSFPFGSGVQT
Method in brief: as §2

FGFR1 = biological target: T3, FGFR1 (Homo sapiens, UniProt P11362); test: as above; settings: read-out: FGFR1 (Kd nM)
T3 construct: made in house; host or cells: E. coli (BL21-derived), T7 phage
T3 sequence (P11362 22-822): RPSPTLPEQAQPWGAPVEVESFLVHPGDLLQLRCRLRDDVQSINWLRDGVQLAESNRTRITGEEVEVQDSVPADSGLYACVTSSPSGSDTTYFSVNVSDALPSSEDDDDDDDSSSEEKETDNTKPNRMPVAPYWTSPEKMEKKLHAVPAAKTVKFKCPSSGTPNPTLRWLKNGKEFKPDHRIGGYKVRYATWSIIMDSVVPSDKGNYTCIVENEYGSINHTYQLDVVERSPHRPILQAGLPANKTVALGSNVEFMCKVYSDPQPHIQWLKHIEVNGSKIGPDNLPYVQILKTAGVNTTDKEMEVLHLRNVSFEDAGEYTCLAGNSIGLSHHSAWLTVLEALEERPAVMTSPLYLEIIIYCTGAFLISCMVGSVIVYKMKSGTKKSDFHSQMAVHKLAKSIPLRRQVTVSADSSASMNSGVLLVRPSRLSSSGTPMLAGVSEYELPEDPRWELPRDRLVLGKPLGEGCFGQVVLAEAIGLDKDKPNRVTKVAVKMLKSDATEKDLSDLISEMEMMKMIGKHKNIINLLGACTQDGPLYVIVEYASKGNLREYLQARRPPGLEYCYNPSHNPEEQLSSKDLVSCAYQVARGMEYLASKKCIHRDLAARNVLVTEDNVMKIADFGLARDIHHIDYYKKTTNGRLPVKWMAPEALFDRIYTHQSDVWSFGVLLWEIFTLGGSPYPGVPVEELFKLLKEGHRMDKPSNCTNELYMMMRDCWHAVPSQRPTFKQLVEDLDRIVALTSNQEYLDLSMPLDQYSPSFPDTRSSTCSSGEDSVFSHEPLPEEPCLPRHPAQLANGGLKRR
Method in brief: as §2

FGFR2 = biological target: T4, FGFR2 (Homo sapiens, UniProt P21802); test: as above; settings: read-out: FGFR2 (Kd nM)
T4 construct: made in house; host or cells: E. coli (BL21-derived), T7 phage
T4 sequence (P21802 22-821): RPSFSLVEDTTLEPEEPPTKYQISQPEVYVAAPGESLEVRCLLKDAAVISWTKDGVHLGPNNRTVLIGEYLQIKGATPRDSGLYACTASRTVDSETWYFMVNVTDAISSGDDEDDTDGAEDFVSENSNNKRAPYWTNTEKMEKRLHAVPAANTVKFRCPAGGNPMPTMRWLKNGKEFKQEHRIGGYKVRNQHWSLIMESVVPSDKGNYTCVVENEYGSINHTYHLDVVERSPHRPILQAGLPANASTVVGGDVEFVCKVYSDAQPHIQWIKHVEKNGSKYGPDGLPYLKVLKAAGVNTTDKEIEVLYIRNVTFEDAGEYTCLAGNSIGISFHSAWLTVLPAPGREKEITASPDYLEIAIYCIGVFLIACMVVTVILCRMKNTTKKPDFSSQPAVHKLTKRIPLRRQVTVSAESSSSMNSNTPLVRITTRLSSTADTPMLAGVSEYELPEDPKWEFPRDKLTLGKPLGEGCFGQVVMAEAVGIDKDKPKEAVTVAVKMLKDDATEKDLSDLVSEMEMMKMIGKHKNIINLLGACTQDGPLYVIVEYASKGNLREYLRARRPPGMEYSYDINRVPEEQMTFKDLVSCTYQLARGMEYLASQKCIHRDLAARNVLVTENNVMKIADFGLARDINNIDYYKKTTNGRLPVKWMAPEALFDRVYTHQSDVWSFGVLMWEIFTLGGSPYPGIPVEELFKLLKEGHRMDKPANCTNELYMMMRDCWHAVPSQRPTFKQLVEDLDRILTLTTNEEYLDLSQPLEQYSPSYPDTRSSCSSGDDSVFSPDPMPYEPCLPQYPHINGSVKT
Method in brief: as §2

FGFR3 (V555M) = biological target: T5, FGFR3 (V555M) (Homo sapiens, UniProt P22607, V555M); test: as above; settings: V555M mutant; read-out: FGFR3 (V555M) (Kd nM)
T5 construct: made in house; host or cells: E. coli (BL21-derived), T7 phage
T5 sequence (P22607 23-806 V555M): as the sequence (P22607 23-806) above, with V533M counted along it
Method in brief: as §2

[2] = system: KATO-III cell line (FGFR2 amplification); test: Cancer cell line cell viability assay (Cell Titer-Glo), 72 hr; type: cell-based; settings: Homo sapiens, KATO III
Method in brief: as §1

[3] = system: RT112/84 cell line (FGFR3-fusion); test: as above; type: cell-based; settings: Homo sapiens, RT112/84, RT112/84 cell line (FGFR3-fusion)
Method in brief: as §1

[4] = system: KG-1 cell line (FGFR 1-fusion); test: as above; type: cell-based; settings: Homo sapiens, KG-1, KG-1 cell line (FGFR1-fusion)
Method in brief: as §1

Row | SMILES | IC50 [1] | Kd (FGFR3) | Kd (FGFR4) | Kd (FGFR1) | Kd (FGFR2) | Kd (FGFR3 (V555M)) | IC50 [2] | IC50 [3] | IC50 [4]
1 | C[C@@H](Oc1ccc2[nH]nc(-c3cnc(N4CC(C)(NCC(F)F)C4)c(F)c3)c2c1)c1c(Cl)cncc1Cl [Example 155, 1-[5-[5-[(1R)-1-(3,5-dichloro-4-pyridyl)ethoxy]-1H-indazol-3-yl]-3-fluoro-2-pyridyl]-N-(2,2-difluoroethyl)-3-methyl-azetidin-3-amine] | 50 to 200 nM | 1 to 50 nM | 1 to 50 nM | 1 to 50 nM | 1 to 50 nM | 1 to 50 nM | 0.1 to 50 nM | 0.1 to 50 nM | 50 to 200 nM
2 | C[C@@H](Oc1ccc2[nH]nc(-c3cnc(N4CC(C)(NCCS(C)(=O)=O)C4)c(F)c3)c2c1)c1c(Cl)cncc1Cl [Example 166, (R)-1-(5-(5-(1-(3,5-Dichloropyridin-4-yl)ethoxy)-1H-indazol-3-yl)-3-fluoropyridin-2-yl)-3-methyl-N-(2-(methylsulfonyl)ethyl)azetidin-3-amine] | 0.1 to 50 nM | 1 to 50 nM | 1 to 50 nM | 1 to 50 nM | 1 to 50 nM | 1 to 50 nM | 0.1 to 50 nM | 0.1 to 50 nM | 50 to 200 nM
3 | C[C@@H](Oc1ccc2[nH]nc(-c3cnc(N4CC(C)(N5CCS(=O)(=O)CC5)C4)c(F)c3)c2c1)c1c(Cl)cncc1Cl [Example 167, 4-[1-[5-[5-[(1R)-1-(3,5-dichloro-4-pyridyl)ethoxy]-1H-indazol-3-yl]-3-fluoro-2-pyridyl]-3-methyl-azetidin-3-yl]-1,4-thiazinane 1,1-dioxide] | 0.1 to 50 nM | 1 to 50 nM | 1 to 50 nM | 1 to 50 nM | 1 to 50 nM | 1 to 50 nM | 0.1 to 50 nM | 0.1 to 50 nM | 50 to 200 nM
4 | C[C@@H](Oc1ccc2[nH]nc(-c3ccc(N4CC(C)(CS(C)(=O)=O)C4)nc3)c2c1)c1c(Cl)cncc1Cl [Example 181, (R)-5-(1-(3,5-dichloropyridin-4-yl)ethoxy)-3-(6-(3-methyl-3-((methylsulfonyl)-methyl)azetidin-1-yl)pyridin-3-yl)-1H-indazole] | 50 to 200 nM | 1 to 50 nM | 1 to 50 nM | 1 to 50 nM | 1 to 50 nM | 1 to 50 nM | 0.1 to 50 nM | 0.1 to 50 nM | 50 to 200 nM
5 | C[C@@H](Oc1ccc2[nH]nc(-c3cnc(N4CC(C)(NCP(C)(C)=O)C4)c(F)c3)c2c1)c1c(Cl)cncc1Cl [Example 182, 1-[5-[5-[(1R)-1-(3,5-dichloro-4-pyridyl)ethoxy]-1H-indazol-3-yl]-3-fluoro-2-pyridyl]-N-(dimethylphosphorylmethyl)-3-methyl-azetidin-3-amine] | 0.1 to 50 nM | 1 to 50 nM | 1 to 50 nM | 1 to 50 nM | 1 to 50 nM | 1 to 50 nM | 0.1 to 50 nM | 0.1 to 50 nM | 200 to 1000 nM
6 | C[C@H](Oc1ccc2[nH]nc(-c3cnc(N4CC(C)(CS(C)(=O)=O)C4)c(F)c3)c2c1)c1c(Cl)cncc1Cl [Example 200, (S)-5-(1-(3,5-dichloropyridin-4-yl)ethoxy)-3-(5-fluoro-6-(3-methyl-3-((methyl-sulfonyl)meth-yl)azetidin-1-yl)pyridin-3-yl)-1H-indazole] | > 1000 nM | 50 to 300 nM | 50 to 300 nM | 300 to 1000 nM | > 1000 nM | 1 to 50 nM | > 1000 nM | > 1000 nM | > 1000 nM
7 | CNC1(C)CN(c2ncc(-c3n[nH]c4ccc(O[C@@H](C)c5c(Cl)cncc5Cl)cc34)cc2F)C1 [Example 205, 1-[5-[5-[(1S)-1-(3,5-dichloro-4-pyridyl)ethoxy]-1H-indazol-3-yl]-3-fluoro-2-pyridyl]-N,3-dimethyl-azetidin-3-amine] | > 1000 nM | 50 to 300 nM | 50 to 300 nM | 50 to 300 nM | 300 to 1000 nM | 1 to 50 nM | 200 to 1000 nM | > 1000 nM | > 1000 nM
8 | C[C@@H](Oc1ccc2[nH]nc(-c3cnc(N4C[C@@H](CS(C)(=O)=O)[C@@H]4C)c(F)c3)c2c1)c1c(Cl)cncc1Cl [Example 206, 5-((R)-1-(3,5-dichloropyridin-4-yl)ethoxy)-3-(5-fluoro-6-((2S,3R)-2-methyl-3-((methylsulfonyl)methyl)azetidin-1-yl)pyridin-3-yl)-1H-indazole] | 50 to 200 nM | 1 to 50 nM | 1 to 50 nM | 1 to 50 nM | 1 to 50 nM | 1 to 50 nM | 0.1 to 50 nM | 0.1 to 50 nM | 50 to 200 nM
9 | C[C@@H]1[C@@H](CS(C)(=O)=O)CN1c1ncc(-c2n[nH]c3ccc(O[C@H](C)c4c(Cl)cncc4Cl)cc23)cc1F [Example 207, 5-((R)-1-(3,5-dichloropyridin-4-yl)ethoxy)-3-(5-fluoro-6-((2R,3S)-2-methyl-3-((methylsulfonyl)methyl)azetidin-1-yl)pyridin-3-yl)-1H-indazole] | 50 to 200 nM | 1 to 50 nM | 1 to 50 nM | 1 to 50 nM | 1 to 50 nM | 1 to 50 nM | 50 to 200 nM | 0.1 to 50 nM | 50 to 200 nM
10 | C[C@@H](Oc1ccc2[nH]nc(-c3ccc(N4CC(C)(NCC5CC5)C4)nc3)c2c1)c1c(Cl)cncc1Cl [Example 219, (R)-N-(cyclo-propylmethyl)-1-(5-(5-(1-(3,5-dichloropyridin-4-yl)ethoxy)-1H-indazol-3-yl)pyridin-2-yl)-3-methylazetidin-3-amine] | 50 to 200 nM | 1 to 50 nM | 1 to 50 nM | 1 to 50 nM | 1 to 50 nM | 1 to 50 nM | 0.1 to 50 nM | 0.1 to 50 nM | 0.1 to 50 nM
11 | CC(=O)N1CCN(C2(C)CN(c3ncc(-c4n[nH]c5ccc(O[C@H](C)c6c(Cl)cncc6Cl)cc45)cc3F)C2)CC1 [Example 220, 1-[4-[1-[5-[5-[(1R)-1-(3,5-dichloro-4-pyridyl)ethoxy]-1H-indazol-3-yl]-3-fluoro-2-pyridyl]-3-methyl-azetidin-3-yl]piperazin-1-yl]ethanone] | 50 to 200 nM | 1 to 50 nM | 1 to 50 nM | 1 to 50 nM | 1 to 50 nM | 1 to 50 nM | 0.1 to 50 nM | 0.1 to 50 nM | 50 to 200 nM
12 | CC(C)CNC1(C)CN(c2ccc(-c3n[nH]c4ccc(O[C@H](C)c5c(Cl)cncc5Cl)cc34)cn2)C1 [Example 224, (R)-1-(5-(5-(1-(3,5-dichloropyridin-4-yl)ethoxy)-1H-indazol-3-yl)pyridin-2-yl)-N-isobutyl-3-methylazetidin-3-amine] | 50 to 200 nM | 1 to 50 nM | 1 to 50 nM | 1 to 50 nM | 1 to 50 nM | 1 to 50 nM | 0.1 to 50 nM | 0.1 to 50 nM | 50 to 200 nM
13 | CC[C@@H](C)NC1(C)CN(c2ccc(-c3n[nH]c4ccc(O[C@H](C)c5c(Cl)cncc5Cl)cc34)cn2)C1 [Example 225, 1-[5-[5-[(1R)-1-(3,5-dichloro-4-pyridyl)ethoxy]-1H-indazol-3-yl]-2-pyridyl]-3-methyl-N-[(1R)-1-meth-ylpropyl]azetidin-3-amine] | 50 to 200 nM | 1 to 50 nM | 1 to 50 nM | 1 to 50 nM | 1 to 50 nM | 1 to 50 nM | 0.1 to 50 nM | 0.1 to 50 nM | 50 to 200 nM
14 | CCCNC1(C)CN(c2ccc(-c3n[nH]c4ccc(O[C@H](C)c5c(Cl)cncc5Cl)cc34)cn2)C1 [Example 227, 1-[5-[5-[(1R)-1-(3,5-dichloro-4-pyridyl)ethoxy]-1H-indazol-3-yl]-2-pyridyl]-3-methyl-N-propyl-azetidin-3-amine] | 50 to 200 nM | 1 to 50 nM | 1 to 50 nM | 1 to 50 nM | 1 to 50 nM | 1 to 50 nM | 0.1 to 50 nM | 0.1 to 50 nM | 50 to 200 nM
15 | CC[C@H](C)NC1(C)CN(c2ccc(-c3n[nH]c4ccc(O[C@H](C)c5c(Cl)cncc5Cl)cc34)cn2)C1 [Example 228, 1-[5-[5-[(1R)-1-(3,5-dichloro-4-pyridyl)ethoxy]-1H-indazol-3-yl]-2-pyridyl]-3-methyl-N-[(1S)-1-meth-ylpropyl]azetidin-3-amine] | 50 to 200 nM | 1 to 50 nM | 1 to 50 nM | 1 to 50 nM | 1 to 50 nM | 1 to 50 nM | 0.1 to 50 nM | 0.1 to 50 nM | 50 to 200 nM
